Test results: publication PMC10269622, “Blapstin, a Diapause-Specific Peptide-Like Peptide from the Chinese Medicinal Beetle Blaps rhynchopetera, Has Antifungal Function” (Microbiology Spectrum, 2023)
Bridge positions count the residues as written; N and C are the ends. Ends that are not written are not given here.

Experiments:
[1] = system: Escherichia coli ATCC 8739; assay: MIC, broth double dilution; assay type: cell-based; conditions: 96-well plate, 37°C, 16 h, absorbance at 600 nm, mean of three independent experiments, ND = no bacteriostatic activity
Procedure: (§1) The standard strain of C. albicans (ATCC 10231), three clinically isolated antibiotic-resistant strains (C. albicans 0065, C. albicans 0063, and C. albicans 6), E. coli (ATCC 8739), and S. aureus (ATCC 6538) were obtained from Kunming Medical University. T. rubrum was purchased from BeNa Culture Collection (BNCC, CAS no. 340195). Different strains of C. albicans, E. coli, and S. aureus were cultured with shaking at 37°C in YM medium and Luria-Bertani (LB) medium. T. rubrum was cultured at 28°C in potato dextrose agar (PDA) medium according to the manufacturer’s instructions.
(§2) According to CLSI protocols, the MIC is determined as a point where there is “zero detectable growth,” The MIC of blapstin against different fungal strains was determined by use of the double dilution method, namely, broth dilution determination. In brief, the different strains were grown in their corresponding media at 28°C or 37°C until they reached the exponential growth phase. Colistin E and fluconazole were used as positive controls. Blapstin was diluted to various concentrations in sterile saline: 100 μL of sterile saline was added to the second well of a sterile 96-well plate, and then 100 μL of blapstin was added to the first and second wells. The solution from the second well was double-diluted with sterile saline until the 11th well, from which 100 μL was removed. In the 12th well, no blapstin was added, and sterile saline was used as a negative control. Afterward, 100 μL of the diluted microbial solution was added to each well, followed by incubation at 37°C for 16 h. To assess the antifungal activity of blapstin against the T. rubrum strain, the spore germination rates were first determined microscopically with a hemocytometer. T. rubrum was diluted with normal saline to 1 × 10^5 CFU/mL and then incubated with various concentrations of blapstin at 28°C for 16 h. The absorbance at 600 nm was measured by a microplate reader (Epoch Etock; Biotek, USA) to estimate the inhibition of bacteria and fungi by blapstin.

[2] = system: Staphylococcus aureus ATCC 6538; assay: MIC, broth double dilution; assay type: cell-based; conditions: 96-well plate, 37°C, 16 h, absorbance at 600 nm, mean of three independent experiments, ND = no bacteriostatic activity
Procedure: as §1, §2

[3] = system: C. albicans; assay: pH stability of antifungal activity (paper disk assay); assay type: physicochemical, Candida albicans; conditions: 30 min at room temperature, then paper disk assay, 37°C, 18 h
Procedure: (ii) Effects of pH. In the test of pH stability of antifungal activity, 50 mg of blapstin was dissolved in 25 mL of solutions with different pH values (pH 3 to 5, 0.1 mol HCl; pH 7 to 9, 1 mmol NaOH), and the peptide solutions of different pH values were incubated at room temperature for 30 min ([63]). Colistin E was used as the positive control, and 1.5% NaCl was used as the negative control. Then, these samples were transferred to the paper disks in the YM solid medium with C. albicans and incubated at 37°C for 18 h for the assay of antifungal activity.

[4] = system: C. albicans ATCC 10231; assay: Fungus-killing kinetics (colony counting); assay type: cell-based, Candida albicans; conditions: 5× MIC, 2 × 10^5 CFU/mL in YM broth, 37°C, three independent experiments
Procedure: The in vitro killing curve for blapstin against C. albicans was determined as described previously with minor modifications ([66]). In brief, C. albicans ATCC 10231 was diluted to 2 × 10^5 CFU/mL with sterile YM liquid broth. Different concentrations of blapstin (1×, 5×, and 10× MIC) were added to the fungal suspension and cultured at 37°C for various periods (0, 1, 10, 30, 60, and 180 min). Colistin E (1×, 5×, and 10× MIC) was used as a positive control, and 0.9% NaCl was used as a negative control. Within the specified time interval after incubation, the fungal suspensions were diluted 1,000-fold with YM medium, and 100 μL of the diluted fungal suspension was inoculated on YM solid medium. After incubation at 37°C for 24 h, colony counting was performed and the results were expressed as CFU per milliliter.

[5] = system: human erythrocytes; assay: Hemolysis assay; assay type: cell-based; conditions: concentration as high as 56.25 μM, 30 min, 37°C; 1% Triton X-100 as maximum hemolysis; three independent experiments
Procedure: As previously reported ([65], [67]), hemolytic activity and cytotoxicity assays were performed using human erythrocytes and mouse macrophages (RAW 264.7 cells). These cells were obtained from Kunming Medical University and Cell Bank of Kunming Institute of Zoology, Chinese Academy of Sciences, respectively. To investigate the hemolytic activity, washed erythrocytes were diluted with normal saline into a suspension of 10^7 to 10^8 cells/mL and mixed with serial dilutions of blapstin (from 1.76 μM to 225 μM) at a 1:1 ratio, followed by incubation for 30 min at 37°C. Then, these erythrocytes were centrifuged for 15 min at 500 × g (Eppendorf, Germany; FA-45-24-11, 4°C). Next, the supernatant was collected, and the hemolysis rate (%) was measured to quantify the hemolysis of blapstin. The maximum hemolysis rate was determined using an equal volume of 1% Triton X-100 as a positive control, and the zero hemolysis rate was determined using sterile normal saline as a negative control. Hemolytic activity was calculated using the following formula: hemolysis rate (%) = (hemolysis of experimental group-negative control)/(hemolysis of positive control-negative control) × 100%. HC50 values were defined as the peptide concentrations causing 50% hemolysis of human erythrocytes.

[6] = system: C. albicans ATCC 10231 biofilm; assay: CLSM live/dead (FDA/PI) staining of biofilm; assay type: cell-based, Candida albicans; conditions: 8× MIC, among 0.5× to 8× MIC; 48 h, 37°C
Procedure: Blapstin at various concentrations (500 μL) was added to 500 μL of the prepared fungal suspension of C. albicans ATCC 10231 (2 × 10^5 CFU/mL) in a sterile 24-well plate to ensure that the final concentration of blapstin ranged from 0.5× to 8× MIC; the plate was incubated for 48 h at 37°C, followed by washing with PBS two to three times to remove unadhered fungal cells. Then, 10 μg/mL of FDA (Solarbio, Beijing, China) and 5 μg/mL of PI (Solarbio, Beijing, China) were added for costaining in the dark for 30 min and washed with PBS twice, as described previously ([68]). Subsequently, the plates were observed using a CLSM (FV 1000; Olympus, Germany). The FDA and PI were excited at 488 nm and 555 nm, respectively, for imaging. Cell viability was assessed based on fluorescence staining; living cells hydrolyze FDA, resulting in the accumulation of green fluorescence, whereas dead cells are stained red by PI. Fluconazole at 10 μΜ and clotrimazole at 10 μΜ were used as a positive control, and sterile 0.9% NaCl was used as a negative control. Green or red fluorescence intensity was calculated using Image J.

Sequence: VRVGPCDQVCSRTNPEKDECCRAHGHSGHSSCYGGRMNCYG (disulfide 6-21, 10-32, 20-39 (inferred)) [Blapstin]
- MIC [1]: did not affect
- MIC [2]: did not affect
- Antifungal activity after pH exposure ([3]; pH 3 and pH 5 (HCl)): full antifungal activity was retained
- Antifungal activity after pH exposure ([3]; pH higher than 7 (NaOH, up to pH 9)): reduced gradually
- Time to kill C. albicans ATCC 10231 [4]: less than 60 min
- Hemolytic activity against human erythrocytes [5]: little hemolytic activity
- Effect on biofilm activity (FDA-labeled live / PI-labeled dead cells, CLSM) [6]: greatest effect
